The source of these data is patent US12180215B2, “Substituted pyrrolo[3,4-d]imidazoles as JAK inhibitors” (HENAN MEDINNO PHARMACEUTICAL TECHNOLOGY CO., LTD., priority 2019, dated 2024).

For orientation: IC50 means the concentration that gives 50% inhibition.

One data set addresses T1, TYK2 (Homo sapiens, UniProt P29597).
T1 construct: purchased Invitrogen PV4790
The experiment in a line: TYK2 kinase ADP-Glo assay (Example 59). It is filed as biochemical. To be noted: TYK2 (Invitrogen) 4 nM, ATP 10 μM, IRS1 0.03 mg/mL, 25° C. 60 min, read-out: IC50 (nM), TYK2 Experiment. In general terms: In ADP-Glo the light output rises with the ADP produced.

The target of a further data set is JAK3 (Homo sapiens, UniProt P52333). Nature of the data set: JAK3 kinase ADP-Glo assay (Example 59). It is filed as biochemical. On the set-up: purchased Invitrogen PV3855. To be noted: JAK3 (Invitrogen) 0.5 nM, ATP 10 μM, Poly (4:1 Glu, Tyr) 0.03 mg/mL, 25° C. 60 min, read-out: IC50 (nM), JAK3 Experiment.
The target of a further data set is JAK1 (Homo sapiens, UniProt P23458). The experiment in a line: JAK1 kinase ADP-Glo assay (Example 59). It is filed as biochemical. On the set-up: purchased Invitrogen PV4774. The settings on record: JAK1 (Invitrogen) 4 nM, ATP 20 μM, IRS1 0.05 mg/mL, 25° C. 60 min, read-out: IC50 (nM), JAK1 Experiment.
The next data set deals with JAK2 (Homo sapiens, UniProt O60674). Nature of the data set: JAK2 kinase ADP-Glo assay (Example 59).
Data set [1] concerns itching caused by allergic dermatitis. The settings on record: cited from earlier work.
The conditions of data set [2]: in vivo; cited from earlier work.

Sequence of JAK3 (P52333 781-1124 limits assumed): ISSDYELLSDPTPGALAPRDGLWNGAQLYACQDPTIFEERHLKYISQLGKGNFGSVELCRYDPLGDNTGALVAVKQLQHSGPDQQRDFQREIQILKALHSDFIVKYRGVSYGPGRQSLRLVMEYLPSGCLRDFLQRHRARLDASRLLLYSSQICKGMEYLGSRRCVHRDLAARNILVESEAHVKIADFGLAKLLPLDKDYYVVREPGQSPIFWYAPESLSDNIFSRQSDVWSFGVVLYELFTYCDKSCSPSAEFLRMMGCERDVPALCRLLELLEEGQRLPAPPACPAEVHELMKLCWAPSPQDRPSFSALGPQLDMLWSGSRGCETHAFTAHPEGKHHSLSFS
Sequence of JAK2 (O60674 808-1132 limits assumed): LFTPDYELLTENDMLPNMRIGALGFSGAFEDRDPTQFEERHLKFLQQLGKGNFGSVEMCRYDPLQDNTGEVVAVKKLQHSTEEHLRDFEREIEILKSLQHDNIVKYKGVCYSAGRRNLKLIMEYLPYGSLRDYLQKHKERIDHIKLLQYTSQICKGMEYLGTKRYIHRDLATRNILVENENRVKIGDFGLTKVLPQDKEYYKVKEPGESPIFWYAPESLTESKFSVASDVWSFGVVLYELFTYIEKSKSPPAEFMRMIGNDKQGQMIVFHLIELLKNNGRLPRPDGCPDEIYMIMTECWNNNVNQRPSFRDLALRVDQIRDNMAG
T1 sequence (P29597 833-1187 limits assumed): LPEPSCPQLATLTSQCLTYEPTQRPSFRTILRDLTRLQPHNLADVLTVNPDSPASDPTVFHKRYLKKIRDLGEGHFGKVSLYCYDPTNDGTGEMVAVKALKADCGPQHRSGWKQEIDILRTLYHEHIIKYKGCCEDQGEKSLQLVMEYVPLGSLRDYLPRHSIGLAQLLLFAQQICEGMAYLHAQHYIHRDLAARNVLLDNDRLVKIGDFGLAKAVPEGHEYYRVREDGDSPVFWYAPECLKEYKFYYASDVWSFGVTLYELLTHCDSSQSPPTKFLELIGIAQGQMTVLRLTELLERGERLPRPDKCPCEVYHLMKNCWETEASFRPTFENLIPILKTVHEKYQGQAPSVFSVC
Sequence of JAK1 (P23458 866-1154 limits assumed): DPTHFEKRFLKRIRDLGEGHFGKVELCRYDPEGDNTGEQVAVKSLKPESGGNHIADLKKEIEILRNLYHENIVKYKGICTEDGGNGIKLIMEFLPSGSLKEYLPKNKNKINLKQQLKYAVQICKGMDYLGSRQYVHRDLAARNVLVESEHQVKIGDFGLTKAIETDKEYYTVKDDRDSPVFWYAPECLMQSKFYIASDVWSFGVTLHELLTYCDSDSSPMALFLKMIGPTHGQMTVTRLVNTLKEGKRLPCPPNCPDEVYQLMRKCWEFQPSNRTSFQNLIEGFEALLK

For the compound `CCc1cc(O)c(F)cc1-c1ccc2c(-c3nc4c([nH]3)CN(C(=O)C3CC(O)C3)C4)n[nH]c2c1` (centres unmarked) [MDI-213, (2-(6-(2-ethyl-5-fluoro-4-hydroxyphenyl)-1H-indazol-3-yl)pyrrolo[3,4-d]imidazol-5(1H,4H,6H)-yl)(3-hydroxylcyclobutyl)ketone], the IC50 at TYK2 stood at 0.146 nM; on JAK3, 0.116 nM; at JAK1, 0.146 nM; at JAK2, 0.166 nM.
For `CNS(=O)(=O)C[C@H]1CC[C@H](N(C)c2ncnc3[nH]ccc23)CC1` [Olatinib], in data set [1] (on the 7th day), the “experimental animals (dogs) that alleviated the itching response by more than 50%” value is “more than 70%”. For the same compound, the “time to relieve itching during the treatment” value in data set [1] (oral administration of 0.4-0.6 mg/kg twice a day) is no more than 24 h.
Take `N#CC[C@H](C1CCCC1)n1cc(-c2ncnc3[nH]ccc23)cn1` [Ruxolitinib]: in data set [2], the “incidence of the most common hematological adverse effects (low platelet counts and anemia)” value is given as greater than 20%; the “incidence of the most common non-hematological adverse effects (ecchymosis, dizziness and headache)” value is given as greater than 10%.
